In series [1] the test system is B16-F10, A549, rabbit smooth muscle and bovine aortic endothelial cells. The experiment in a line: Cell adhesion assay, summary over the four cell types of Table II. The class given is cell-based. Conditions: for Cell attachment compared to TSP, range over four cell types: text summary of Table II.
In series [2] the test system is B16-F10 mouse melanoma cells in C57BL/6 mouse. Nature of the series: Tumor cell metastasis assay. The class given is in vivo. Conditions: compared with buffer control.
A further series in a line: Heparin binding activity. Particulars: data not shown.
The test system of a further series is human platelets. The experiment in a line: ADP-induced platelet aggregation in platelet-rich plasma. Format: cell-based. Particulars: ADP for 5 min, 500 ug/ml peptide; buffer control more than 1,000 per clump.
Series [3] in a line: Oxidative stability of peptide in solution. The class given is physicochemical.

Take ANKHYF [reference compound]: in series [1], the “Cell adhesive activity (in words)” value is “little or no significant cell adhesive activity”. In addition, the “Effect on lung tumor colony formation (in words)” value in series [2] is recorded as “no significant effect”.

For the substance CRVTCG, the Heparin binding activity result in the series “Heparin binding activity” was “possessed heparin binding activity”.

Take CSTSCR: in series [1], the “Cell attachment compared to TSP, range over four cell types” value is recorded as 39-104%.

With CSVTCG, the “Cell attachment compared to TSP, range over four cell types” value in series [1] is on record as 29-49%. In addition, in the series “Heparin binding activity”, the Heparin binding activity result was “did not”. In the series on human platelets, the Platelets per clump is reported as 10-50 platelets per clump. Moreover, the “Oxidation in solution (in words)” value in series [3] (multimers with apparent molecular weights of 2,000 on SDS-gels) is reported as “slowly oxidized in solution”. For the same substance, the “Time for which freshly prepared solutions were stable” value in series [3] (peptide in solution, oxidation of cysteine thiols) was “at least 2 h”.

For CSVTCR, in series [1], the “Cell attachment compared to TSP, range over four cell types” value is reported as 90-159%.

For Cyclic CSVTCG (disulfide), the “Cell adhesive activity (in words)” value in series [1] was “approximately to the same extent as CSVTCG”.

As for TCVCGS [reference compound], the “Cell adhesive activity (in words)” value in series [1] is reported as “little or no significant cell adhesive activity”. For the same substance, the “Effect on lung tumor colony formation (in words)” value in series [2] is “no significant effect”.

On to “TSP: 450,000-dalton glycoprotein secreted by platelets, purified from activated platelets”, for which the “Number of adherent cells representing 100% adhesion” value in series [1] (TSP-coated microtiter wells) is recorded as 500 adherent cells per min'.

Regarding VCTGSC [reference compound], the “Cell adhesive activity (in words)” value in series [1] was “little or no significant cell adhesive activity”.

Values taken from PMC2289263 (The Journal of Cell Biology, 1992).
